The source of these data is patent US11661400B2, “NADPH oxidase inhibitors, pharmaceutical composition comprising the same, and application thereof” (TAIWANJ PHARMACEUTICALS CO., LTD., priority 2018, dated 2023).

In one assay the target is T1, NOX1 (Homo sapiens, UniProt Q9Y5S8).
T1 construct: endogenous in cells; host or cells: HT29
T1 sequence (Q9Y5S8 1-564): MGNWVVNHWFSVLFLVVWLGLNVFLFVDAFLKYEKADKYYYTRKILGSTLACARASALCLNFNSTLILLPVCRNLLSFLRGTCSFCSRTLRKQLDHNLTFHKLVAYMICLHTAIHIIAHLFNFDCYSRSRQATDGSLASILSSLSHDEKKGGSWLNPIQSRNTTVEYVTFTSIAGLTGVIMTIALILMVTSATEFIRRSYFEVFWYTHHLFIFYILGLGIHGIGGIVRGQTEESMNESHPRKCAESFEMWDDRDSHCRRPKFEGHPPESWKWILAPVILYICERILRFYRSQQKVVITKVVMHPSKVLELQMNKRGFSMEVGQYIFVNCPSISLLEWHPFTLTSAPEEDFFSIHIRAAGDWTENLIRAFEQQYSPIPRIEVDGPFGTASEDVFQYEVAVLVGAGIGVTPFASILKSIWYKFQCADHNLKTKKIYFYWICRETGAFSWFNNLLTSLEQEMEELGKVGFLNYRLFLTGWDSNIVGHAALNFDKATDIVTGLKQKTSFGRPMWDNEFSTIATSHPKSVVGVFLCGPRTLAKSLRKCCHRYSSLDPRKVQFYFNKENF
T1 sequence (P13498 2-195 partner limits assumed): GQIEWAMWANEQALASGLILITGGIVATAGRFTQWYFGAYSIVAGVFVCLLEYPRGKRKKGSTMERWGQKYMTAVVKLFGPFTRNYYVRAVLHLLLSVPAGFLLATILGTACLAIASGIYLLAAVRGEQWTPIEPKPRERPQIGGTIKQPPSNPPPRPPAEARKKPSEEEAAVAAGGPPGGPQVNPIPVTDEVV
Nature of the assay: NOX1 HT29 cell-based assay (luminol/HRP luminescence). As to conditions: HT29 cells, DMSO = 0%, GKT137831 = 100%; for inhibition at 0.1 µM / inhibition at 1 µM: HT-29. On the procedure: NOX1 HT29 Cell-Based Assay:
HT29 cells were cultured in T75 flask (Corning) and when 70-80% confluence was reached, cells were trypsinized, harvested in HBSS and counted. 1-2×10^5 cells were dispensed into individual wells in 70 μl final volume (96-well plates, white Corning). Cells were treated for 30-60 mins at 37° C. with 10 μl of GKT137831, DMSO and test compounds from their respective assay plates. This will correspond to a final concentration of 100 nM, 1000 nM GKT137831 or test compounds, and 0.1% DMSO. 20 μL of a mixture containing 100 μM luminol plus 0.4 units of HRP (final concentration) was added. Luminescence was quantified using a SpectraMax i3 Multiplate reader (Molecular Devices, Sunnyvale, Calif., USA). As designed, compounds that inhibit NOX1 activity will reduce cellular ROS production, leading to reduced probe-ROS interactions and reduced well luminescence. Compounds were tested in duplicate at a concentration of 100 nM and 1000 nM. DMSO and GKT137831 wells were applied as negative and positive controls, and the activities measured were set to 0% and 100%, respectively.

The next assay addresses T2, NOX2 (Homo sapiens, UniProt P04839).
T2 construct: HL-60 cells, rich in NOX2 expression; endogenous in cells; host or cells: DMSO-differentiated HL-60
T2 sequence (P04839 2-570 limits assumed): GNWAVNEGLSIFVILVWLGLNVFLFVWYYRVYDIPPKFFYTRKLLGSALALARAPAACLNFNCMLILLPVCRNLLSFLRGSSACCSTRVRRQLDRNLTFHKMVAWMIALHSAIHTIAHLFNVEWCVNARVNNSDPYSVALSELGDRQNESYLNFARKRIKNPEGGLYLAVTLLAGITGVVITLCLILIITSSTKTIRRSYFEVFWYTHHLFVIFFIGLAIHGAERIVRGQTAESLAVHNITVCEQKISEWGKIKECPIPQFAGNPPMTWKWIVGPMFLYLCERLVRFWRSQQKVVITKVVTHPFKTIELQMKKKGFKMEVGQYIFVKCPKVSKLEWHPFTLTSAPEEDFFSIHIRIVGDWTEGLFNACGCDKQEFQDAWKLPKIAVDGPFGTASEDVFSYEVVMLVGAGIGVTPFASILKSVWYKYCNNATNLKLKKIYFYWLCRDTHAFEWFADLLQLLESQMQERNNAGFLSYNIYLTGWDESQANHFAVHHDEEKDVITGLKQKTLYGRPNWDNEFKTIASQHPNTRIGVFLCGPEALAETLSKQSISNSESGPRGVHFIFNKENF
T2 sequence (P13498 2-195 partner limits assumed): T1 sequence (P13498 2-195 partner limits assumed)
The assay can be described thus: NOX2 HL60 cell-based assay (PMA oxidative burst, L012 chemiluminescence). The following applies: DMSO-differentiated HL-60 cells, PMA-stimulated; for inhibition at 0.1 µM: HL-60, 100 nM; for inhibition at 1 µM: HL-60, 1000 nM. On the procedure:
NOX2 HL60 Cell-Based Assay:
HL-60 cells, rich in NOX2 expression, was stimulated to undergo oxidative burst by phorbol myristate acetate (PMA). The ROS produced during this process was measured using the O2^−-specific chemiluminescent probe L012. L012 was added to DMSO-differentiated HL-60 cell suspensions to a final concentration of 100 μM. Then, 80 μL aliquots of cell suspension (2.5×10^5 cells) were transferred to individual wells of a 96-well plate. Test compounds were directly added to the wells at the specified concentrations. Following a 30-60 mins incubation at 37° C. in the dark, the oxidative burst was initiated by the addition of 10 ng/mL PMA, and the chemiluminescence signal was recorded every 5 min over a period of 60 mins in a SpectraMax i3 Multiplate reader (Molecular Devices, Sunnyvale, Calif., USA). • NOX4 HEK293 Overexpression Cell-Based Assay: […]

For another assay, the target named is T3, NOX4 (Homo sapiens, UniProt Q9NPH5).
T3 construct: expressed in transfected cells
T3 sequence (Q9NPH5 1-578): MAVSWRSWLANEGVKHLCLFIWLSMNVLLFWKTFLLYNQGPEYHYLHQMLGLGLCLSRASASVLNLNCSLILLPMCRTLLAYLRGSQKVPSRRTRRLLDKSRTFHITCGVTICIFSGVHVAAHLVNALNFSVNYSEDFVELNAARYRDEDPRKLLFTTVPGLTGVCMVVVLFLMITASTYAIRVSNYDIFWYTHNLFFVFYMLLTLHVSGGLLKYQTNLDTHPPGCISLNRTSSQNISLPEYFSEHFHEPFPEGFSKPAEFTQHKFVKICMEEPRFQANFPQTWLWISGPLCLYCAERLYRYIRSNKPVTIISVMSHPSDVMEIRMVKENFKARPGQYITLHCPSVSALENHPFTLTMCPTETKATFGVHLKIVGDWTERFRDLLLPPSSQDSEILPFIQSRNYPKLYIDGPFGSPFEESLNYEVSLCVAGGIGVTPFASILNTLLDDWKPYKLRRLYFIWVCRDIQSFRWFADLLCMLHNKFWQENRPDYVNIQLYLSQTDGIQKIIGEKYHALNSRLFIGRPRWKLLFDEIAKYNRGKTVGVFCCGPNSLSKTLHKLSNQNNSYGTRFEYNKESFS
T3 sequence (P13498 2-195 partner limits assumed): T1 sequence (P13498 2-195 partner limits assumed)
Nature of the assay: NOX4 HEK293 overexpression cell-based assay (Amplex Red H2O2). As to conditions: HEK293 cells stably overexpressing NOX4, DMSO = 0, GKT137831 = 100; for inhibition at 1 µM: HEK293, 1000 nM; for inhibition at 0.1 µM: HEK293, 100 nM. On the procedure:
Extracellular H2O2 measurement using Amplex™ Red Hydrogen Peroxide/Peroxidase Assay Kit (Catalog number: A22188; Invitrogen, Carlsbad, Calif., USA) was used to detect extracellular H2O2 release by HEK293 cells stably overexpressing NOX4. NOX4 clonal cells in log-phase growth were trypsinized, washed, and dispersed thoroughly. Following trypsinization, the cells (3×10^4) were resuspended in 100 μL of 1× Krebs-Ringer phosphate glucose (KRPG) buffer containing various concentrations of GKT137831 or test compounds and incubated at 37° C. for 30 min. Cells were mixed with 100 μL of Amplex Red reagent solution containing 50 μM Amplex Red and 0.1 units/mL of HRP in KRPG buffer; each assay condition was evaluated induplicate. The samples were incubated at 37° C. for 90 mins in the dark, and then centrifuged at 2,500 g for 5 mins. The supernatants were loaded to a 96 well plate, and then measured using a SpectraMax i3 Multiplate reader (Molecular Devices, Sunnyvale, Calif., USA) at 530 nm excitation and 590 nm emission respectively. DMSO and GKT137831 wells were applied as negative and positive controls, and the activities measured were set to 0 and 100, respectively.

A word on the inhibition: it is the share of the control response that was lost under treatment.

Regarding `COc1cc(Br)c(-c2[nH]c3cc(OC)c(OC)cc3c(=O)c2O)c(OC)c1` [Compound 27], the figures for the inhibition at 0.1 µM on NOX1 (100 nM) and against NOX2 were ≥ 80% and ≤ 19%, respectively. For the same compound, the inhibition at 1 µM on NOX1 (1000 nM), at NOX2 and against NOX4 was ≥ 80% each time. Moreover, the “% Inhibition NOX4” value on NOX4 (100 nM) is on record as “C (the percent of inhibition of NOX by the compounds ranges from 2000 to 49%)”.

For the compound `COc1cc2[nH]c(-c3ccccc3Cl)c(N)c(=O)c2cc1OC` [Compound 36, 3-amino-2-(2-chlorophenyl)-6,7-dimethoxyquinolin-4(1H)-one], the “% Inhibition NOX1” value at NOX1 (100 nM) was “C (the percent of inhibition of NOX by the compounds ranges from 2000 to 49%)”. Besides, the inhibition at 1 µM at NOX1 (1000 nM) is ≥ 80%; against NOX2 it was ≥ 80%; at NOX4, 50 to 79%. In addition, on NOX2 (100 nM), the “% Inhibition NOX2” value was “C (the percent of inhibition of NOX by the compounds ranges from 2000 to 49%)”. Besides, at NOX4, the inhibition at 0.1 µM is ≤ 19%.

As for `COc1ccccc1-c1[nH]c2c(OC)c(OC)c(OC)cc2c(=O)c1O` [Compound 19], the inhibition at 0.1 µM was ≥ 80% at NOX1 (100 nM), ≤ 19% at NOX2 and ≤ 19% on NOX4. Moreover, the inhibition at 1 µM was ≥ 80% against NOX1 (1000 nM), 50 to 79% against NOX2 and 50 to 79% on NOX4.

Regarding `COc1cc2[nH]c(C(C)(C)C)c(O)c(=O)c2cc1OC` [Compound 14], the inhibition at 0.1 µM on NOX1 (100 nM), against NOX2 and at NOX4 was ≤ 19% in each case. Further, the inhibition at 1 µM on NOX1 (1000 nM) is ≥ 80%; against NOX2, ≤ 19%; against NOX4 it was ≤ 19%.

In the case of `COc1cc2[nH]c(-c3ccccc3Cl)c(O)c(=O)c2cc1OC` [Compound 46], the “% Inhibition NOX1” value on NOX1 (100 nM) and at NOX1 (1000 nM) was “A (the percent of inhibition of NOX by the compounds is larger than or equals to 80%)” throughout. In addition, the “% Inhibition NOX2” value was “D (the percent of inhibition of NOX by the compounds is smaller than or equals to 19% o)” on NOX2 (100 nM) and “A (the percent of inhibition of NOX by the compounds is larger than or equals to 80%)” at NOX2 (1000 nM). Besides, the “% Inhibition NOX4” value is “B (the percent of inhibition of NOX by the compounds ranges from 50% o to 79% o)” at NOX4 (100 nM) and “B (the percent of inhibition of NOX by the compounds ranges from 50% o to 79% o)” on NOX4 (1000 nM, 1 µM).

`COc1cc2[nH]c(-c3ccc(Cl)cc3)c(O)c(=O)c2cc1OC` [Compound 8]: at NOX1 (100 nM, 0.1 µM), the “% Inhibition NOX1” value is recorded as “C (the percent of inhibition of NOX by the compounds ranges from 2000 to 49%)”. Besides, the inhibition at 1 µM against NOX1 (1000 nM) is ≥ 80%; at NOX2, ≤ 19%; against NOX4, 50 to 79%. Besides, the inhibition at 0.1 µM at NOX2 and at NOX4 was ≤ 19% throughout.

`COc1cc2[nH]c(-c3ccccc3C(F)(F)F)c(O)c(=O)c2cc1OC` [Compound 17]: the inhibition at 0.1 µM against NOX1 (100 nM) was ≥ 80%; on NOX4 it was 50 to 79%. For the same compound, the results for the inhibition at 1 µM at NOX1 (1000 nM) and at NOX4 were ≥ 80% and 50 to 79%, respectively. In addition, the “% Inhibition NOX2” value at NOX2 (100 nM, 0.1 µM) is “C (the percent of inhibition of NOX by the compounds ranges from 2000 to 49%)”; on NOX2 (1000 nM, 1 µM) it was “B (the percent of inhibition of NOX by the compounds ranges from 50% o to 79% o)”.
